Test results: patent US8669072B2, “Oxadiazoline ligands for modulating the expression of exogenous genes via an ecdysone receptor complex” (Intrexon Corporation, priority 2003, dated 2014)
Like-named read-outs stand apart in the source and are kept apart here.

Tests used:
[1] = target: T1, GAL4 DBD (1-147)-CfEcR(DEF)/VP16AD-βRXREF-LmUSPEF (Choristoneura fumiferana, UniProt O77240); assay: cell-based; settings: for fold induction at 33.3 µM: 48 h, read-out: Fold Induction Average, 27-63 assay; for Rel Max FI, 27-63 assay: maximum fold induction relative to that of GS-E ligand
T1 construct: The wild-type D, E, and F domains from spruce budworm Choristoneura fumiferana EcR (“CfEcR-DEF”)
Description: Stably transfected cells were selected by Zeocin resistance. Individually isolated CHO cell clones were transiently transfected with a GAL4 RE-luciferase reporter (pFR Luc). 27-63 clone was selected using Hygromycin.
(§1) Cells were trypsinized and diluted to a concentration of 2.5×10^4 cells mL. 100 μL of cell suspension was placed in each well of a 96 well plate and incubated at 37° C. under 5% CO2 for 24 h. Ligand stock solutions were prepared in DMSO and diluted 300 fold for all treatments.
(§2) Luciferase reporter gene expression was measured 48 h after cell treatment using Bright-Glo™ Luciferase Assay System from Promega (E2650). Luminescence was detected at room temperature using a Dynex MLX microtiter plate luminometer.
(§3) Each assay was conducted in two separate wells, and the two values were averaged. Fold inductions were calculated by dividing relative light units (“RLU”) in ligand treated cells with RLU in DMSO treated cells. EC50s were calculated from dose response data using a three-parameter logistic model.

[2] = target: T2, GAL4 DBD-CfEcR(DEF)/VP16AD-MmRXRE (Choristoneura fumiferana, UniProt O77240); assay: 13B3 assay: luciferase reporter gene induction in stable CHO clone 13B3; type: cell-based; settings: for fold induction at 33.3 µM: 48 h, read-out: Fold Induction Average, 13B3 assay
T2 construct: The wild-type D, E, and F domains from spruce budworm Choristoneura fumiferana EcR (“CfEcR-DEF”)
Description: CHO cells were transiently transfected with transcription cassettes for GAL4 DBD-CfEcR(DEF) and for VP16AD-MmRXRF controlled by SV40e promoters. Stably transfected cells were selected using Hygromycin. Individually isolated CHO cell clones were transiently transfected with a GAL4 RE-luciferase reporter (pFR-Luc, Stratagene, La Jolla, Calif.). The 13B3 clone was selected using Zeocin.
as §1, §2, §3

Bombyx mori EcR (VBE) = target: T3, Bombyx mori EcR (VBE) (Bombyx mori, UniProt P49881); assay: Z3 assay: β-galactosidase reporter gene induction in HEK-293 clone Z3 (CVBE / 6XEcRE LacZ); type: cell-based; settings: for fold induction at 33 µM: read-out: Fold Induction Average, Z3 assay
T3 construct: expressed in transfected cells; host or cells: Human HEK-293 cells, retrovirally infected, clone Z3
T3 sequence (P49881 86-606 limits assumed): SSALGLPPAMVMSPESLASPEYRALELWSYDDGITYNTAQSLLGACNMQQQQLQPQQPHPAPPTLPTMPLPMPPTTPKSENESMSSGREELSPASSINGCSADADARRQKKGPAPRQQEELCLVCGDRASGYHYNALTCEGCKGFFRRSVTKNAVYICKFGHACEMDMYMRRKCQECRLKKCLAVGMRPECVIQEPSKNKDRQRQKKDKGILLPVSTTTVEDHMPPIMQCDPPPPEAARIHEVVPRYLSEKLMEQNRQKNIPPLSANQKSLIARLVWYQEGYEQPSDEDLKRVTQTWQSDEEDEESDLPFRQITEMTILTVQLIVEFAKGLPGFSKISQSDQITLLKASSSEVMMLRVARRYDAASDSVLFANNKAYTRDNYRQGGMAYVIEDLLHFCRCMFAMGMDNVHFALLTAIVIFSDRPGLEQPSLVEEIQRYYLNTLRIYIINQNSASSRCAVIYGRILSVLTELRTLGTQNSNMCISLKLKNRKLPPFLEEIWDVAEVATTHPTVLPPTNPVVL
T3 sequence (P19793 1-462 partner): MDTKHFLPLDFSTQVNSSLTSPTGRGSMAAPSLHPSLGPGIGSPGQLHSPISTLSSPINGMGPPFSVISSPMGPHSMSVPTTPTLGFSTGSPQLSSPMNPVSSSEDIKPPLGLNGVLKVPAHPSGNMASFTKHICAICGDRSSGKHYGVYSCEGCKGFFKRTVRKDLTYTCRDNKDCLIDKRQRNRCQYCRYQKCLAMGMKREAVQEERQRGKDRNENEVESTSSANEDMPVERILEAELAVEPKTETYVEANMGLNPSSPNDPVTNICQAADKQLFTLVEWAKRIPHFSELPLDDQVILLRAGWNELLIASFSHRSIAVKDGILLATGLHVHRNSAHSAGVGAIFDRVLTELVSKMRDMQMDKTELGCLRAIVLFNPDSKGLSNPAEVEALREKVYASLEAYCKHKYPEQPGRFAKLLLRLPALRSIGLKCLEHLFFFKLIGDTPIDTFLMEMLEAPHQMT
Description: A synthetic ATG start codon was placed under the control of cytomegalovirus (CVBE) immediate early promoter and flanked by long terminal repeats (LTR). The reporter construct contained six copies of the ecdysone response element (EcRE) binding site placed upstream of LacZ and flanked on both sides with LTR sequences (6×EcRE).
Dilution cloning was used to isolate individual clones. Clones were selected using 450 ug/mL G418 and 100 ng/mL puromycin. Individual clones were evaluated based on their response in the presence and absence of test ligands.
Z3 cells were seeded into 96-well tissue culture plates at a concentration of 2.5×10^3 cells per well and incubated at 37° C. in 5% CO2 for twenty-four hours. Stock solutions of ligands were prepared in DMSO. […] The final concentration of DMSO was maintained at 0.03% in both controls and treatments.
Reporter gene expression was evaluated 48 hours after treatment of cells, β-galactosidase activity was measured using Gal Screen™ bioluminescent reporter gene assay system from Tropix (GSY1000). Fold induction activities were calculated by dividing relative light units (“RLU”) in ligand treated cells with RLU in DMSO treated cells. Luminescence was detected at room temperature using a Dynex MLX microtiter plate luminometer.
as §3

[3] = system: MTA (two-spotted spider mite); assay: Insect toxicity contact bioassay, MTA; type: in vivo; settings: 150 ppm
Description: (§4) The compound to be evaluated was dissolved in an appropriate solvent, usually a mix of acetone, methanol, and water. Test solutions were made by serial dilution of a stock test solution with acetone, methanol, and water. Initial evaluations were made at one or more concentrations on one or more of the following insects:
(§5) Contact bioassays (green peach aphid, two-spotted spider mite, white fly) were conducted by applying a solution of the test compound to the inside surface of a Petri dish. The solution was allowed to air-dry, then each dish was infested and the larvae from each treatment were transferred to a bioassay tray. The trays were held for one to seven days, and the mortality rating was determined for each treatment.

Cabbage Looper = assay: Insect toxicity feeding bioassay, CL; type: in vivo; settings: 150 ppm
Description: as §4
(§6) Feeding bioassays were conducted in bioassay trays containing insect diet. Treatments were made by applying 50 μL of test solution to the surface of the diet in each of 5 wells. After the test solution dried, each well was infested with a single neonate larva. The trays were held for six days and then the mortality rating was determined for each treatment.

WFN (white fly) = assay: Insect toxicity contact bioassay, WFN; type: in vivo; settings: 150 ppm
Description: as §4, §5

Beet Armyworm = assay: Insect toxicity feeding bioassay, BAW; type: in vivo; settings: 150 ppm
Description: as §4, §6

Tobacco Budworm = assay: Insect toxicity bioassay, TBW; type: in vivo; settings: 150 ppm
Description: as §4, §6
Some of the tobacco budworm tests were conducted as follows. A test solution containing 600 ppm was made by dissolving a compound of the invention in a 1:1 acetone:methanol solution, then adding water to give a 5:5:90 acetone:methanol:water solution, and finally a surfactant was added at an equivalent of 7.37 g of surfactant per 100 L of test solution (1 ounce of surfactant per 100 gallons of test solution). Appropriate dilutions were prepared in water from the 600 ppm solution. A detached cotton leaf, Gossypium hirsutum was placed on moistened filter paper in a Petri dish (100×20 mms). The leaf was sprayed with the test solution using a rotating turntable sprayer and allowed to dry. The dish was infested with 10 first instar larvae of the tobacco budworm and covered with the lid. If the larvae were alive two days after treatment, fresh untreated cotton leaves were added. All treatments were maintained at 23.9-26.7° C. (75-80° F.) under fluorescent light in a well-ventilated room. Percent mortality was determined at four days after treatment.

[4] = 33/33.3 μM ligand, RLU relative to DMSO
[5] = HEK293, 33 μM ligand, 48 h, RLU relative to DMSO
[6] = maximum fold induction relative to that of GS-E ligand

| SMILES | EC50 [1] [µM] | fold induction at 33.3 µM [1] | Rel Max FI, 27-63 assay [1] | fold induction at 33.3 µM [2, 4] | fold induction at 33 µM (Bombyx mori EcR (VBE); [5]) | also measured |
| --- | --- | --- | --- | --- | --- | --- |
| CCc1c(OC)cccc1C(=O)NN1C(c2ccccc2OC)=NOC1(C)C [RG-120016] | ~20 | 1150 | 0.71 | 4.4 | 227 |  |
| Cc1cc(C)cc(C2=NOC(C)(C)N2NC(=O)c2ccc(Cl)cc2)c1 [RG-120024] | > 33 | 6.3 | 0 | 2.1 | 3.8 |  |
| CCc1ccc(C(=O)NN2C(c3ccccc3)=NOC2(C)CC)cc1 (centres unmarked) [RG-120137] | > 33 | 4.6 | 0 | 5.3 | 59 |  |
| CCc1ccc(C(=O)NN2C(c3ccccc3)=NOC23CCOCC3)cc1 [RG-120124] | > 33 | 1 | 0 | 1.2 | 2 |  |
| Cc1cc(C)cc(C2=NOC(C)(C)N2NC(=O)c2cccc(F)c2)c1 [RG-120002] | > 33 | 5.7 | 0 | 0.2 | 3.9 |  |
| CCc1c(OC)cccc1C(=O)NN1C(c2ccc(OC)cc2OC)=NOC1(C)C [RG-120058] | > 33 | 0.3 | 0 | 0.3 | 1.7 |  |
| CCc1ccc(C(=O)NN2C(c3ccc(OC(F)(F)F)cc3)=NOC2(C)C)cc1 [RG-120055] | > 33 | 0.5 | 0 | 0.7 | 0.2 |  |
| CCc1c(OC)cccc1C(=O)NN1C(c2ccccc2)=NOC12CCOCC2 [RG-120159] | > 33 | 3.7 | 0 | 0.1 | 0.2 |  |
| COc1cccc(C(=O)NN2C(c3cc(C)cc(C)c3)=NOC23CCc2ccccc2C3)c1C (centres unmarked) [RG-120037, N-[3-(3,5-Dimethyl-phenyl)-1-oxa-2,4-diaza-spiro[4.5]-7,8-benzo-dec-2-en-4-yl]-3-methoxy-2-methyl-benzamide] | > 33 | 0.4 | 0 | 0.3 | 0.5 |  |
| CCc1ccc(C(=O)NN2C(c3ccc(OC)cc3OC)=NOC2(C)C)cc1 [RG-120135] | > 33 | 0.7 | 0 | 0.4 | 0.7 |  |
| CC1(C)ON=C(c2cccc(C(F)(F)F)c2)N1NC(=O)c1ccccc1 [RG-120015] |  |  |  |  |  | Insect Toxicity % control @ 150 ppm, MTA [3]: 0% @ 150; Insect Toxicity % control @ 150 ppm, CL (Cabbage Looper): 0% @ 150; Insect Toxicity % control @ 150 ppm, WFN (WFN (white fly)): 0% @ 150; Fold Induction Average, Z3 assay (Bombyx mori EcR (VBE); 33 μM ligand, 48 h, RLU relative to DMSO): 0.8; Insect Toxicity % control @ 150 ppm, BAW (Beet Armyworm): 80% @ 150; Insect Toxicity % control @ 150 ppm, TBW (Tobacco Budworm): 0% @ 150 |
| COc1cccc(C(=O)NN2C(c3cc(C)cc(C)c3)=NOC2(C)C)c1C [RG-120045, N-[3-(3,5-Dimethyl-phenyl)-5,5-dimethyl-[1,2,4]oxadiazol-4-yl]-3-methoxy-2-methyl-benzamide] | ~20 | 2710 | 1.25 | 1410 | 276 |  |
| CCc1ccc(C(=O)NN2C(c3cc(C)cc(C)c3)=NOC23CCCC3)cc1 [RG-120040] | ~20 | 242 | 0.13 | 174 | 202 |  |
| CCc1ccc(C(=O)NN2C(c3ccccc3)=NOC2(C)C)cc1 [RG-120115] | > 33 |  | 0 |  |  | fold induction at 33.3 µM [2]: 0.8; fold induction at 33 µM (Bombyx mori EcR (VBE); HEK293, 48 h): 9.1 |
| CCc1c(OC)cccc1C(=O)NN1C(c2cc(C)cc(C)c2)=NOC12CCCC2 [RG-120049] | 3.42 | 2070 | 1.58 | 2660 | 310 | EC50 [2]: 3.57 µM; Rel Max FI, 13B3 assay [2, 6]: 1.56; EC50 (Bombyx mori EcR (VBE)): 1.6 µM; Rel Max FI, Z3 assay (Bombyx mori EcR (VBE); [6]): 0.88 |
| CCc1ccc(C(=O)NN2C(c3ccc4c(c3)OCO4)=NOC2(C)C)cc1 [RG-120061] | > 33 | 0.9 | 0 | 0.4 | 0.6 |  |
| CCC1(C)ON=C(c2ccccc2)N1NC(=O)c1ccccc1 (centres unmarked) [RG-120118] | > 33 | 13.4 | 0 | 0.8 | 1.4 |  |
